Experimental data reported in patent publication US20020137929A1, “1 - (3-heterocyclylphenyl) isothiourea, -isourea, -guanidine and -amidine herbicidal agents” (Intellectual Property Department, BASF Aktiengesellschaft, priority 1998, published 2002).

Legend:
[1] = system: IPOHE (Morningglory, Ivyleaf); experiment: Postemergence herbicidal evaluation; assay type: in vivo, Ipomoea hederacea; conditions: for IPOHE herbicidal rating: postemergence
Method in brief: (§1)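 ~2-wk seedlings; postemergence spray, 40 psi; vehicle 1:1 acetone:water + 0.5% Tween 20; rate ≈0.0156–0.500 kg/ha; greenhouse hold; scored 4–5 wk after treatment, 0–9 scale vs control; repeat tests averaged.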

[2] = system: IPOHE (Morningglory, Ivyleaf); experiment: Preemergence herbicidal evaluation; assay type: in vivo, Ipomoea hederacea; conditions: rated 4-5 weeks after treatment
Method in brief: (§2)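 Visual 0-9 rating vs control (stand, vigor, malformation, size, chlorosis, overall appearance), scored 4-5 wk after spraying. Seeded soil cups were treated preemergence with compound in aqueous acetone, ~0.0156-0.500 kg/ha equivalent.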

[3] = system: AMBEL (Ragweed, Common); experiment: Postemergence herbicidal evaluation; assay type: in vivo, Ambrosia artemisifolia; conditions: for AMBEL herbicidal rating: postemergence
Method in brief: as §1

[4] = system: ECHCG (Barnyardgrass); experiment: Preemergence herbicidal evaluation; assay type: in vivo, Echinochloa crus-galli; conditions: rated 4-5 weeks after treatment
Method in brief: as §2

[5] = system: CYPIR (Rice Flatsedge); experiment: Postemergence weed control under flooded paddy conditions; assay type: in vivo, Cyperus iria; conditions: postemergence weeds
Method in brief: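 Herbicidal effect is judged by eye on a 0–9 scale versus control, 3–4 weeks after dosing. Dosing is into flood water kept 1.5–3 cm over the soil, at about 0.0313–0.500 kg/ha in aqueous/acetone 50/50 v/v, on 3–5 cm weeds and 1.5–2.5-leaf rice seedlings.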

[6] = system: CASOB (Sicklepod); experiment: Preemergence herbicidal evaluation; assay type: in vivo, Cassia obtusifolia; conditions: rated 4-5 weeks after treatment
Method in brief: as §2

[7] = system: GALAP (Galium); experiment: Postemergence herbicidal evaluation; assay type: in vivo, Galium aparine; conditions: for GALAP herbicidal rating: postemergence
Method in brief: as §1

[8] = system: SAGPY (Arrowhead (Pygmaea)); experiment: Preemergence weed control under flooded paddy conditions; assay type: in vivo, Sagittaria pygmaea; conditions: rated 3-4 weeks after treatment
Method in brief: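 Using flooded silt loam (water 1.5 to 3 cm deep), seeds sown in the top 0.5 cm were exposed preemergence to compound pipetted into the flood at about 0.0313 to 0.500 kg/ha. Effects were scored 0-9 by eye three to four weeks later.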

[9] = system: CASOB (Sicklepod); experiment: Postemergence herbicidal evaluation; assay type: in vivo, Cassia obtusifolia; conditions: for CASOB herbicidal rating: postemergence
Method in brief: as §1

[10] = system: ABUTH (Velvetleaf); experiment: Preemergence herbicidal evaluation; assay type: in vivo, Abutilon theophrasti; conditions: rated 4-5 weeks after treatment
Method in brief: as §2

[11] = system: ZEAMX (Corn, Field); experiment: Preemergence herbicidal evaluation; assay type: in vivo, Zea mays; conditions: rated 4-5 weeks after treatment
Method in brief: as §2

[12] = system: GLXMAW (Soybean, Williams); experiment: Preemergence herbicidal evaluation; assay type: in vivo, Glycine max, (L.) Merr. cv Williams; conditions: rated 4-5 weeks after treatment
Method in brief: as §2

[13] = system: TRZAWR (Wheat, Winter, cv Riband); experiment: Preemergence herbicidal evaluation; assay type: in vivo, Triticum aestivum; conditions: rated 4-5 weeks after treatment
Method in brief: as §2

In the case of `CC(C)C[C@@H](C(=O)O)N1C(=O)CSC1=Nc1cc(-n2c(=O)cc(C(F)(F)F)n(C)c2=O)c(F)cc1Cl` [Compound 71, α-Isobutyl-2-{{2-chloro-5-[3,6-dihydro-3-methyl-2,6-dioxo-4-(trifluoromethyl)-1(2H)-pyrimidinyl]-4-fluorophenyl}imino}-4-oxo-3-thiazolidineacetic acid, L-], the IPOHE herbicidal rating ([1]; rate 0.0158 kg/ha) is reported as 9.0, the IPOHE herbicidal rating ([1]; rate 0.0315 kg/ha) is reported as 9.0 and the IPOHE herbicidal rating ([1]; rate 0.0630 kg/ha) is reported as 9.0. For the same molecule, the “Preemergence herbicidal rating IPOHE” value ([2]; rate 0.0156 kg/ha) was 0.0, the “Preemergence herbicidal rating IPOHE” value ([2]; rate 0.0313 kg/ha) was 0.0 and the “Preemergence herbicidal rating IPOHE” value ([2]; rate 0.0625 kg/ha) was 0.0. For the same molecule, the “Preemergence herbicidal rating IPOHE” value ([2]; rate 0.1250 kg/ha) was 9.0, the “Preemergence herbicidal rating IPOHE” value ([2]; rate 0.2500 kg/ha) was 9.0 and the AMBEL herbicidal rating ([3]; rate 0.0158 kg/ha) was 9.0. The AMBEL herbicidal rating ([3]; rate 0.0315 kg/ha) was 9.0, the AMBEL herbicidal rating ([3]; rate 0.0630 kg/ha) was 9.0 and the “Preemergence herbicidal rating ECHCG” value ([4]; rate 0.0156 kg/ha) was 0.0. The “Preemergence herbicidal rating ECHCG” value ([4]; rate 0.0313 kg/ha) was 0.0, the “Preemergence herbicidal rating ECHCG” value ([4]; rate 0.0625 kg/ha) was 0.0 and the “Preemergence herbicidal rating ECHCG” value ([4]; rate 0.1250 kg/ha) was 2.0. For the same molecule, the “Preemergence herbicidal rating ECHCG” value ([4]; rate 0.2500 kg/ha) was 4.0, the “Herbicidal rating CYPIR” value ([5]; Rate 0.1250 kg/ha, rated 3 to 4 weeks after treatment) was 3.0 and the “Herbicidal rating CYPIR” value ([5]; Rate 0.2500 kg/ha, rated 3 to 4 weeks after treatment) was 7.0. For the same molecule, the “Preemergence herbicidal rating CASOB” value ([6]; rate 0.0156 kg/ha) was 0.0, the “Preemergence herbicidal rating CASOB” value ([6]; rate 0.0313 kg/ha) was 0.0 and the “Preemergence herbicidal rating CASOB” value ([6]; rate 0.0625 kg/ha) was 0.0. For the same molecule, the “Preemergence herbicidal rating CASOB” value ([6]; rate 0.1250 kg/ha) was 7.0, the “Preemergence herbicidal rating CASOB” value ([6]; rate 0.2500 kg/ha) was 9.0 and the GALAP herbicidal rating ([7]; rate 0.0158 kg/ha) was 4.0. For the same molecule, the GALAP herbicidal rating ([7]; rate 0.0315 kg/ha) was 6.0, the GALAP herbicidal rating ([7]; rate 0.0630 kg/ha) was 7.0 and the “SAGPY herbicidal effect rating” value ([8]; 0.1250 kg/ha) was 0.0. For the same molecule, the “SAGPY herbicidal effect rating” value ([8]; 0.2500 kg/ha) was 0.0, the CASOB herbicidal rating ([9]; rate 0.0158 kg/ha) was 2.0 and the CASOB herbicidal rating ([9]; rate 0.0315 kg/ha) was 3.0. The CASOB herbicidal rating ([9]; rate 0.0630 kg/ha) was 4.0, the “Preemergence herbicidal rating ABUTH” value ([10]; rate 0.0156 kg/ha) was 1.0 and the “Preemergence herbicidal rating ABUTH” value ([10]; rate 0.0313 kg/ha) was 9.0. The “Preemergence herbicidal rating ABUTH” value ([10]; rate 0.0625 kg/ha) was 9.0, the “Preemergence herbicidal rating ABUTH” value ([10]; rate 0.1250 kg/ha) was 9.0 and the “Preemergence herbicidal rating ABUTH” value ([10]; rate 0.2500 kg/ha) was 9.0. The “Preemergence herbicidal rating ZEAMX” value ([11]; rate 0.0156 kg/ha) was 0.0, the “Preemergence herbicidal rating ZEAMX” value ([11]; rate 0.0313 kg/ha) was 0.0 and the “Preemergence herbicidal rating ZEAMX” value ([11]; rate 0.0625 kg/ha) was 0.0. For the same molecule, the “Preemergence herbicidal rating ZEAMX” value ([11]; rate 0.1250 kg/ha) was 3.0, the “Preemergence herbicidal rating ZEAMX” value ([11]; rate 0.2500 kg/ha) was 3.0 and the “Preemergence herbicidal rating GLXMAW” value ([12]; rate 0.0156 kg/ha) was 1.0. For the same molecule, the “Preemergence herbicidal rating GLXMAW” value ([12]; rate 0.0313 kg/ha) was 0.0, the “Preemergence herbicidal rating GLXMAW” value ([12]; rate 0.0625 kg/ha) was 1.0 and the “Preemergence herbicidal rating GLXMAW” value ([12]; rate 0.1250 kg/ha) was 3.0. The “Preemergence herbicidal rating TRZAWR” value ([13]; rate 0.0156 kg/ha) was 0.0, the “Preemergence herbicidal rating TRZAWR” value ([13]; rate 0.0313 kg/ha) was 0.0 and the “Preemergence herbicidal rating TRZAWR” value ([13]; rate 0.0625 kg/ha) was 0.0. The “Preemergence herbicidal rating TRZAWR” value ([13]; rate 0.1250 kg/ha) was 1.0 and the “Preemergence herbicidal rating TRZAWR” value ([13]; rate 0.2500 kg/ha) was 3.0.

In the case of `CCOC(=O)CN1CC(=O)N(CC(=O)OCC)C1=Nc1cc(-n2c(=O)cc(C(F)(F)F)n(C)c2=O)c(F)cc1Cl` [Compound 34, 2-{{2-Chloro-5-[3,6-dihydro-3-methyl-2,6-dioxo-4-(trifluoromethyl)-1(2H)-pyrimidinyl]-4-fluoro-phenyl}imino}-4-oxo-1,3-imidazolidinediacetic acid, diethyl ester], the “Postemergence herbicidal rating IPOHE” value ([1]; Rate 0.0158 kg/ha) is reported as 9.0, the “Postemergence herbicidal rating IPOHE” value ([1]; Rate 0.0315 kg/ha) is reported as 9.0 and the “Postemergence herbicidal rating IPOHE” value ([1]; Rate 0.0630 kg/ha) is reported as 9.0. The “Preemergence herbicidal rating IPOHE” value ([2]; rate 0.0313 kg/ha) was 0.0, the “Preemergence herbicidal rating IPOHE” value ([2]; rate 0.0625 kg/ha) was 3.0 and the “Preemergence herbicidal rating IPOHE” value ([2]; rate 0.1250 kg/ha) was 3.0. The “Preemergence herbicidal rating IPOHE” value ([2]; rate 0.2500 kg/ha) was 9.0, the “Postemergence herbicidal rating AMBEL” value ([3]; Rate 0.0158 kg/ha) was 9.0 and the “Postemergence herbicidal rating AMBEL” value ([3]; Rate 0.0315 kg/ha) was 9.0. For the same molecule, the “Postemergence herbicidal rating AMBEL” value ([3]; Rate 0.0630 kg/ha) was 9.0, the “Preemergence herbicidal rating ECHCG” value ([4]; rate 0.0313 kg/ha) was 0.0 and the “Preemergence herbicidal rating ECHCG” value ([4]; rate 0.0625 kg/ha) was 0.0. The “Preemergence herbicidal rating ECHCG” value ([4]; rate 0.1250 kg/ha) was 2.0, the “Preemergence herbicidal rating ECHCG” value ([4]; rate 0.2500 kg/ha) was 5.0 and the “Herbicidal rating CYPIR” value ([5]; rate 0.0313 kg/ha, 3-4 weeks after treatment) was 0.0. The “Herbicidal rating CYPIR” value ([5]; rate 0.0625 kg/ha, 3-4 weeks after treatment) was 0.0, the “Herbicidal rating CYPIR” value ([5]; rate 0.1250 kg/ha, 3-4 weeks after treatment) was 0.0 and the “Herbicidal rating CYPIR” value ([5]; rate 0.2500 kg/ha, 3-4 weeks after treatment) was 0.0. The “Preemergence herbicidal rating CASOB” value ([6]; rate 0.0313 kg/ha) was 0.0, the “Preemergence herbicidal rating CASOB” value ([6]; rate 0.0625 kg/ha) was 0.0 and the “Preemergence herbicidal rating CASOB” value ([6]; rate 0.1250 kg/ha) was 0.0. For the same molecule, the “Preemergence herbicidal rating CASOB” value ([6]; rate 0.2500 kg/ha) was 0.0, the “Postemergence herbicidal rating GALAP” value ([7]; Rate 0.0158 kg/ha) was 4.0 and the “Postemergence herbicidal rating GALAP” value ([7]; Rate 0.0315 kg/ha) was 9.0. The “Postemergence herbicidal rating GALAP” value ([7]; Rate 0.0630 kg/ha) was 6.0, the “Herbicidal rating SAGPY” value ([8]; 0.0313 kg/ha) was 0.0 and the “Herbicidal rating SAGPY” value ([8]; 0.0625 kg/ha) was 0.0. The “Herbicidal rating SAGPY” value ([8]; 0.1250 kg/ha) was 0.0, the “Herbicidal rating SAGPY” value ([8]; 0.2500 kg/ha) was 0.0 and the “Postemergence herbicidal rating CASOB” value ([9]; Rate 0.0158 kg/ha) was 0.0. For the same molecule, the “Postemergence herbicidal rating CASOB” value ([9]; Rate 0.0315 kg/ha) was 0.0, the “Postemergence herbicidal rating CASOB” value ([9]; Rate 0.0630 kg/ha) was 0.0 and the “Preemergence herbicidal rating ABUTH” value ([10]; rate 0.0313 kg/ha) was 9.0. For the same molecule, the “Preemergence herbicidal rating ABUTH” value ([10]; rate 0.0625 kg/ha) was 9.0, the “Preemergence herbicidal rating ABUTH” value ([10]; rate 0.1250 kg/ha) was 9.0 and the “Preemergence herbicidal rating ABUTH” value ([10]; rate 0.2500 kg/ha) was 9.0. For the same molecule, the “Preemergence herbicidal rating ZEAMX” value ([11]; rate 0.0313 kg/ha) was 0.0, the “Preemergence herbicidal rating ZEAMX” value ([11]; rate 0.0625 kg/ha) was 3.0 and the “Preemergence herbicidal rating ZEAMX” value ([11]; rate 0.1250 kg/ha) was 7.0. For the same molecule, the “Preemergence herbicidal rating ZEAMX” value ([11]; rate 0.2500 kg/ha) was 9.0, the “Preemergence herbicidal rating GLXMAW” value ([12]; rate 0.0313 kg/ha) was 0.0 and the “Preemergence herbicidal rating GLXMAW” value ([12]; rate 0.0625 kg/ha) was 0.0. The “Preemergence herbicidal rating GLXMAW” value ([12]; rate 0.1250 kg/ha) was 0.0, the “Preemergence herbicidal rating GLXMAW” value ([12]; rate 0.2500 kg/ha) was 0.0 and the “Preemergence herbicidal rating TRZAWR” value ([13]; rate 0.0313 kg/ha) was 0.0. The “Preemergence herbicidal rating TRZAWR” value ([13]; rate 0.0625 kg/ha) was 0.0, the “Preemergence herbicidal rating TRZAWR” value ([13]; rate 0.1250 kg/ha) was 1.0 and the “Preemergence herbicidal rating TRZAWR” value ([13]; rate 0.2500 kg/ha) was 5.0.
